Test results taken from ChEMBL document CHEMBL1201862, “PubChem BioAssay data set” (2004).
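Five concentrations, 48 hours, 96-well plates. GI50 is the concentration that inhibits growth by half.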 Activity calls are given as the source filed them. No stated cut-off is given here; in the data, active = GI50 up to about 1.1 µM and inactive = higher.

What was measured:
Test in all cases: DTP human tumour cell line panel, 48 h
[1] = tested on: RXF 393
[2] = tested on: UACC-62
[3] = tested on: PC-3
[4] = tested on: Malme-3M
[5] = tested on: MDA-MB-435
[6] = tested on: HCT-15
[7] = tested on: T47D
[8] = tested on: HL-60
[9] = tested on: SF-295
[10] = tested on: SF-268
[11] = tested on: SW-620
[12] = tested on: A498
[13] = tested on: K562
[14] = tested on: Hs-578T
[15] = tested on: SF-539
[16] = tested on: RPMI-8226
[17] = tested on: MOLT-4
[18] = tested on: SR
[19] = tested on: HT-29

| Compound | GI50 [1] | GI50 [2] | GI50 [3] | GI50 [4] | GI50 [5] | GI50 [6] [µM] | GI50 [7] | GI50 [8] | GI50 [9] | GI50 [10] | GI50 [11] | GI50 [12] | GI50 [13] | GI50 [14] | GI50 [15] | GI50 [16] | GI50 [17] | GI50 [18] | GI50 [19] |
| --- | --- | --- | --- | --- | --- | --- | --- | --- | --- | --- | --- | --- | --- | --- | --- | --- | --- | --- | --- |
| CC1OC(OC2C(O)COC(OC3C(C)OC(OC4C(OC(=O)[C@]56CCC(C)(C)C[C@@H]5C5=CCC7[C@@]8(C)C[C@H](O)[C@H](OC9OC(CO)C(O)C(O)C9O)[C@@](C)(CO)[C@@H]8CC[C@@]7(C)[C@]5(C)CC6)OCC(O)C4O)C(O)C3OC3OCC(O)(CO)C3O)C2O)C(O)C(O)C1O (stereo partly specified) | 14.7 µM (inactive) | 13.2 µM (inactive) | 11.9 µM (inactive) | 12 µM (inactive) | 17.4 µM (inactive) | 16.1 | 18.8 µM (inactive) | 8.73 µM (inactive) | 13.6 µM (inactive) | 10.2 µM (inactive) | 11.3 µM (inactive) | 3.97 µM (inactive) | 28.5 µM (inactive) | 7.48 µM (inactive) | 20.8 µM (inactive) | 29.2 µM (inactive) | 15.7 µM (inactive) | 13.8 µM (inactive) | 17.5 µM (inactive) |
| COc1ccc2nc3c(c(N)c2c1)C1CCC3C1(C)C (stereo unspecified) | 23 µM (inactive) | 15.3 µM (inactive) | 24.3 µM (inactive) | 24.3 µM (inactive) | 33 µM (inactive) | 51.1 | 22.7 µM (inactive) | 18.5 µM (inactive) | 20.6 µM (inactive) | 72.1 µM (inactive) | 25.5 µM (inactive) | 25.1 µM (inactive) | 41.7 µM (inactive) | > 100 µM (inactive) | 38.2 µM (inactive) | 23.5 µM (inactive) | 46.9 µM (inactive) | 34.8 µM (inactive) | 23.8 µM (inactive) |
| Nc1n[n+]([O-])c2ccc(Cl)cc2[n+]1[O-] | 18.4 µM (inactive) | > 10 µM (inactive) | 22.3 µM (inactive) | 18.3 µM (inactive) | 21.4 µM (inactive) | 16.1 | 24.7 µM (inactive) | 7.23 µM (inactive) | 23 µM (inactive) | 52.1 µM (inactive) | 20.6 µM (inactive) | 26.9 µM (inactive) | 10.3 µM (inactive) | 13.9 µM (inactive) | 23 µM (inactive) | 14.7 µM (inactive) | 14.7 µM (inactive) | 32.5 µM (inactive) | 25.8 µM (inactive) |
| CO/N=C(\C)c1cccc(Nc2c3ccccc3nc3occc23)c1 | 0.0454 µM (active) | 7.55 µM (inactive) | 16.8 µM (inactive) | 13.4 µM (inactive) | 2.34 µM (inactive) | 6.21 | 7.23 µM (inactive) | 3.53 µM (inactive) | 5.46 µM (inactive) | 11.2 µM (inactive) | – | 19.3 µM (inactive) | 4.11 µM (inactive) | 17 µM (inactive) | 9.06 µM (inactive) | 4.36 µM (inactive) | 4.63 µM (inactive) | 3.33 µM (inactive) | 4.47 µM (inactive) |
| COC(=O)C1=CO[C@@H](OC2OC(CO)C(O)C(O)C2O)[C@H]2[C@@H](C)[C@@H](O)[C@@H](O)[C@@H]12 (stereo partly specified) | > 100 µM (inactive) | > 100 µM (inactive) | > 100 µM (inactive) | > 100 µM (inactive) | > 100 µM (inactive) | > 100 | > 100 µM (inactive) | > 100 µM (inactive) | > 100 µM (inactive) | > 100 µM (inactive) | > 100 µM (inactive) | > 100 µM (inactive) | – | > 100 µM (inactive) | > 100 µM (inactive) | > 100 µM (inactive) | > 100 µM (inactive) | 36.6 µM (inactive) | > 100 µM (inactive) |
| Nn1c(-c2ccccc2)nn(C(=O)c2ccccc2)c1=O | > 100 µM (inactive) | – | > 100 µM (inactive) | > 100 µM (inactive) | > 100 µM (inactive) | > 100 | > 100 µM (inactive) | > 100 µM (inactive) | > 100 µM (inactive) | > 100 µM (inactive) | > 100 µM (inactive) | > 100 µM (inactive) | > 100 µM (inactive) | > 100 µM (inactive) | > 100 µM (inactive) | > 100 µM (inactive) | > 100 µM (inactive) | > 100 µM (inactive) | > 100 µM (inactive) |
